The values that follow come from US20250092044A1, “Kinase Inhibitors” (Incyte Corporation, priority 2023, published 2025).

Like-named read-outs stand apart in the source and are kept apart here.

For data set [1], the system named is TRKA. Description: TRKA Enzymatic Assay. The class given is biochemical. Summed up:
(§1)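 Reaction contained 0.58 nM TRKA, 1 mM ATP, 500 nM biotinylated TK substrate and 62.5 nM SEB reagent in HEPES 50 mM pH 7.0 with 10 mM MgCl2, 1 mM DTT and 0.1 mM orthovanadate, 0.5% DMSO, ATP-initiated. After 60 min at room temperature, the TR-FRET 665/620 nm ratio was read. IC50 was fitted from percent control activity versus log concentration, with DMSO and no-ATP wells as controls.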

A further data set is described as follows: FaSSIF Solubility Assay. The class given is physicochemical. As to conditions: FaSSIF (fasted state simulated intestinal fluid), 25 °C, pH 6.5, fassif, thermodynamic from solid, FaSSIF pH=6.5, 25° C. The source says: The FaSSIF (Fasted State Simulated Intestinal Fluid) solubility assay can predict how an oral drug is likely to be dissolved and potentially absorbed in the upper intestine after drinking a glass of water. FaSSIF solubility assay utilizes biorelevant intestinal media (Biorelevant, Part #FFF01) comprised of physiological surfactants, bile salts, and phospholipids that are present in the gastrointestinal fluids it mimics. FaSSIF (pH=6.5) has the average pH of a fasted intestinal fluid with similar osmolarity. The FaSSIF buffer was prepared by adding 20 mL of phosphate buffer to FaSSIF Powder. The buffer was then added to the dry compound of interest at a concentration of 1 mg/mL and then incubated at 25° C. for 24 hours in a Rototherm Plus (Part #H2024). After incubation, the Eppendorf tubes were centrifuged and run on an Agilent 1260 LC-MS. The LC-MS method is a 5 min gradient method of 2% to 95% acetonitrile with water (0.05% TFA) using a Sunfire C18, 5 um 2.1×50 mm (Part #186002539) column. A dry reference compound of interest was diluted to a known 1 mg/mL concentration in 1:1 of water and acetonitrile. Step-wise serial dilutions were performed and run on an Agilent 1260 LC-MS using the same conditions to make a standard curve. The area under the curve is reported for the compound of interest in FaSSIF buffer and the reference standards. Calculations were performed and the predicted solubility, μg/mL, was reported for compounds of the examples.

Data set [2] deals with TRKA (Homo sapiens (Human), UniProt P04629). Description: TRKA Enzymatic Assay. The class given is biochemical. Conditions: 1 mM ATP. Summed up: as §1
Chain of TRKA (Homo sapiens (Human), UniProt P04629) (P04629 33-796, species assumed): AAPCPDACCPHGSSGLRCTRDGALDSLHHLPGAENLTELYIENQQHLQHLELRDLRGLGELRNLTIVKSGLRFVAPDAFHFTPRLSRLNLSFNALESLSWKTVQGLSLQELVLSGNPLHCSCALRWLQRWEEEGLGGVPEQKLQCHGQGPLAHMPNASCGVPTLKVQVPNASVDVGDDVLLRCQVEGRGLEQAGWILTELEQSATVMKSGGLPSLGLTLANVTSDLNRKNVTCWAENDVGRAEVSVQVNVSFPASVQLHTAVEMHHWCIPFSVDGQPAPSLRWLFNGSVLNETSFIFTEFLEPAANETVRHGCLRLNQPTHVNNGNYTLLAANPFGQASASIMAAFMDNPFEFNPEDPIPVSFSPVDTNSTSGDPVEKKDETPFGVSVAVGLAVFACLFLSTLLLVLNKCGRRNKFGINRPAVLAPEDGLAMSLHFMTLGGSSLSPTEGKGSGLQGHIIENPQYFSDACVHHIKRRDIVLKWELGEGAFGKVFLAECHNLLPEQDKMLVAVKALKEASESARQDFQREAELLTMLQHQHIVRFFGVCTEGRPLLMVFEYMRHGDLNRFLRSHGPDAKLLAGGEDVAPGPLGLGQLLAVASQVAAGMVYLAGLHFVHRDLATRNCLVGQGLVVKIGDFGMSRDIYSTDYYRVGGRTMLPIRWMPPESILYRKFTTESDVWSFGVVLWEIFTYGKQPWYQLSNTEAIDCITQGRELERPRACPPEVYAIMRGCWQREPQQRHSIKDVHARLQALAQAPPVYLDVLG
Data set [3] concerns STAT5 (Tyr694) phosphorylation in SET-2 cells. Description: STAT5 (Tyr694) Phosphorylation Cell Based Assay. As to conditions: Homo sapiens, 2 hours, read-out: SET2 IC50. Summed up: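 SET-2 cells in RPMI with 10% FBS were exposed to compound for 2 h at 37 °C (0.5% DMSO final). After lysis, phospho-STAT5 (Tyr694) was read by HTRF (665/620 ratio) after 24 h antibody incubation at room temperature. IC50 was fitted from percent control activity versus log concentration.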

In the case of `COc1nn(C)cc1-c1[nH]c2ncc3c(c2c1-c1ccc2c(cnn2C)c1)n(C1CCOCC1)c(=O)n3C` [Comparative Example A, reference compound], the “Selectivity TRKA/JH2 V617F” value in the data set on TRKA [1] is “** (selectivity of >500-fold to ≤1500-fold)”. Moreover, the solubility at 24 h in “FaSSIF Solubility Assay” (read-out: FaSSIF solubility) is less than 20 µg/mL; in “FaSSIF Solubility Assay” (read-out: Solubility Fassif) it was no more than 50 µg/mL.
Regarding `COc1nn(C)cc1-c1[nH]c2ncc3c(c2c1-c1ccc2c(cnn2C)c1)n([C@H]1CC[C@@H](CC#N)CC1)c(=O)n3C` [E, reference compound], the “Selectivity TRKA/JH2 V617F” value in the data set with TRKA [1] is given as “** (selectivity of >500-fold to ≤1500-fold)”. The solubility at 24 h in the data set “FaSSIF Solubility Assay” (read-out: Solubility Fassif) was no more than 50 µg/mL.
For `CCNC(=O)c1ccc(-c2[nH]c3ncc4c(c3c2-c2ccc3c(cnn3C(C)C)c2)n([C@@H]2CC[C@@H](NC(=O)OC)C2)c(=O)n4C)cc1F` [Example 6, Methyl ((1R,3R)-3-(7-(4-(ethylcarbamoyl)-3-fluorophenyl)-8-(1-isopropyl-1H-indazol-5-yl)-3-methyl-2-oxo-3,6-dihydroimidazo[4,5-d]pyrrolo[2,3-b]pyridin-1(2H)-yl)cyclopentyl)carbamate], the “Selectivity TRKA/JH2 V617F” value with TRKA [1] was “***** (selectivity of >5000-fold to ≤12500-fold)”. Besides, the IC50 at TRKA [2] is 1250 to 2500 nM; in data set [3], no more than 300 nM.
In the same order, the values of `COC(=O)N[C@@H]1CC[C@@H](n2c(=O)n(C)c3cnc4[nH]c(-c5ccc(C(=O)NC6CC6)c(F)c5)c(-c5ccc6c(cnn6C(C)C)c5)c4c32)C1` [Example 8, Methyl ((1R,3R)-3-(7-(4-(cyclopropylcarbamoyl)-3-fluorophenyl)-8-(1-isopropyl-1H-indazol-5-yl)-3-methyl-2-oxo-3,6-dihydroimidazo[4,5-d]pyrrolo[2,3-b]pyridin-1(2H)-yl)cyclopentyl)carbamate] are “****** (selectivity of >12500-fold)”, greater than 2500 nM and 300 to 800 nM.
In the same order, the values of `COC(=O)N[C@@H]1CC[C@@H](n2c(=O)n(C)c3cnc4[nH]c(-c5ccc(C(=O)NC6CC6(F)F)c(F)c5)c(-c5ccc6c(cnn6C(C)C)c5)c4c32)C1` (stereo partly drawn) [Example 9, Methyl ((1R,3R)-3-(7-(4-((2,2-difluorocyclopropyl)carbamoyl)-3-fluorophenyl)-8-(1-isopropyl-1H-indazol-5-yl)-3-methyl-2-oxo-3,6-dihydroimidazo[4,5-d]pyrrolo[2,3-b]pyridin-1(2H)-yl)cyclopentyl)carbamate] are “****** (selectivity of >12500-fold)”, greater than 2500 nM and 300 to 800 nM.
In the same order, the values of `COC(=O)N[C@@H]1CC[C@@H](n2c(=O)n(C)c3cnc4[nH]c(-c5ccc(C(=O)NC6CC6C(F)(F)F)c(F)c5)c(-c5ccc6c(cnn6C(C)C)c5)c4c32)C1` (stereo partly drawn) [Example 10, Methyl ((1R,3R)-3-(7-(3-fluoro-4-((2-(trifluoromethyl)cyclopropyl)carbamoyl)phenyl)-8-(1-isopropyl-1H-indazol-5-yl)-3-methyl-2-oxo-3,6-dihydroimidazo[4,5-d]pyrrolo[2,3-b]pyridin-1(2H)-yl)cyclopentyl)carbamate] are “****** (selectivity of >12500-fold)”, greater than 2500 nM and 300 to 800 nM.
As for `COC(=O)N[C@@H]1CC[C@@H](n2c(=O)n(C)c3cnc4[nH]c(-c5ccc(C(=O)NCC(F)(F)F)c(F)c5)c(-c5ccc6c(cnn6C(C)C)c5)c4c32)C1` [Example 11, Methyl ((1R,3R)-3-(7-(3-fluoro-4-((2,2,2-trifluoroethyl)carbamoyl)phenyl)-8-(1-isopropyl-1H-indazol-5-yl)-3-methyl-2-oxo-3,6-dihydroimidazo[4,5-d]pyrrolo[2,3-b]pyridin-1(2H)-yl)cyclopentyl)carbamate], the “Selectivity TRKA/JH2 V617F” value with TRKA [1] is “****** (selectivity of >12500-fold)”. The IC50 was greater than 2500 nM at TRKA [2] and no more than 300 nM in data set [3].
In the same order, the values of `CNC(=O)c1ccc(-c2[nH]c3ncc4c(c3c2-c2ccc3c(cnn3C(C)C)c2)n([C@@H]2CC[C@@H](NC(=O)OC)C2)c(=O)n4C)cc1F` [Example 12, Methyl ((1R,3R)-3-(7-(3-fluoro-4-(methylcarbamoyl)phenyl)-8-(1-isopropyl-1H-indazol-5-yl)-3-methyl-2-oxo-3,6-dihydroimidazo[4,5-d]pyrrolo[2,3-b]pyridin-1(2H)-yl)cyclopentyl)carbamate] are “****** (selectivity of >12500-fold)”, greater than 2500 nM and no more than 300 nM.
In the same order, the values of `COC(=O)N[C@@H]1CC[C@@H](n2c(=O)n(C)c3cnc4[nH]c(-c5ccc(C(=O)NC6(C(F)(F)F)CC6)c(F)c5)c(-c5ccc6c(cnn6C(C)C)c5)c4c32)C1` [Example 13, Methyl ((1R,3R)-3-(7-(3-fluoro-4-((1-(trifluoromethyl)cyclopropyl)carbamoyl)phenyl)-8-(1-isopropyl-1H-indazol-5-yl)-3-methyl-2-oxo-3,6-dihydroimidazo[4,5-d]pyrrolo[2,3-b]pyridin-1(2H)-yl)cyclopentyl)carbamate] are “***** (selectivity of >5000-fold to ≤12500-fold)”, greater than 2500 nM and 300 to 800 nM.
In the same order, the values of `COCCNC(=O)c1ccc(-c2[nH]c3ncc4c(c3c2-c2ccc3c(cnn3C(C)C)c2)n([C@@H]2CC[C@@H](NC(=O)OC)C2)c(=O)n4C)cc1F` [Example 14, Methyl ((1R,3R)-3-(7-(3-fluoro-4-((2-methoxyethyl)carbamoyl)phenyl)-8-(1-isopropyl-1H-indazol-5-yl)-3-methyl-2-oxo-3,6-dihydroimidazo[4,5-d]pyrrolo[2,3-b]pyridin-1(2H)-yl)cyclopentyl)carbamate] are “****** (selectivity of >12500-fold)”, greater than 2500 nM and no more than 300 nM.
`COCCN(C)C(=O)c1ccc(-c2[nH]c3ncc4c(c3c2-c2ccc3c(cnn3C(C)C)c2)n([C@@H]2CC[C@@H](NC(=O)OC)C2)c(=O)n4C)cc1F` [Example 15, Methyl ((1R,3R)-3-(7-(3-fluoro-4-((2-methoxyethyl)(methyl)carbamoyl)phenyl)-8-(1-isopropyl-1H-indazol-5-yl)-3-methyl-2-oxo-3,6-dihydroimidazo[4,5-d]pyrrolo[2,3-b]pyridin-1(2H)-yl)cyclopentyl)carbamate]: the “Selectivity TRKA/JH2 V617F” value with TRKA [1] is “****** (selectivity of >12500-fold)”. Moreover, the IC50 was greater than 2500 nM against TRKA [2] and no more than 300 nM in data set [3].
For `COC(=O)N[C@@H]1CC[C@@H](n2c(=O)n(C)c3cnc4[nH]c(-c5ccc(C(=O)N6CCOCC6)c(F)c5)c(-c5ccc6c(cnn6C(C)C)c5)c4c32)C1` [Example 16, Methyl ((1R,3R)-3-(7-(3-fluoro-4-(morpholine-4-carbonyl)phenyl)-8-(1-isopropyl-1H-indazol-5-yl)-3-methyl-2-oxo-3,6-dihydroimidazo[4,5-d]pyrrolo[2,3-b]pyridin-1(2H)-yl)cyclopentyl)carbamate], in the data set on TRKA [1], the “Selectivity TRKA/JH2 V617F” value is recorded as “****** (selectivity of >12500-fold)”. Moreover, the IC50 against TRKA [2] is 1250 to 2500 nM; in data set [3], no more than 300 nM.
In the same order, the values of `CNC(=O)c1ccc(-c2[nH]c3ncc4c(c3c2-c2ccc3c(cnn3C(C)C)c2)n([C@@H]2CC[C@@H](NC(=O)OC)C2)c(=O)n4C)cc1` [Example 21, Methyl ((1R,3R)-3-(8-(1-isopropyl-1H-indazol-5-yl)-3-methyl-7-(4-(methylcarbamoyl)phenyl)-2-oxo-3,6-dihydroimidazo[4,5-d]pyrrolo[2,3-b]pyridin-1(2H)-yl)cyclopentyl)carbamate] are “****** (selectivity of >12500-fold)”, 1250 to 2500 nM and 300 to 800 nM.
In the same order, the values of `CCNC(=O)c1ccc(-c2[nH]c3ncc4c(c3c2-c2ccc3c(cnn3C(C)C)c2)n([C@@H]2CC[C@@H](NC(=O)OC)C2)c(=O)n4C)cc1` [Example 23, Methyl ((1R,3R)-3-(7-(4-(ethylcarbamoyl)phenyl)-8-(1-isopropyl-1H-indazol-5-yl)-3-methyl-2-oxo-3,6-dihydroimidazo[4,5-d]pyrrolo[2,3-b]pyridin-1(2H)-yl)cyclopentyl)carbamate] are “***** (selectivity of >5000-fold to ≤12500-fold)”, 1250 to 2500 nM and no more than 300 nM.

As usually defined, the solubility is how much of the substance goes into solution per volume. A word on the IC50: it is the midpoint of a concentration-inhibition curve.
